Assay results: US20020026053A1, “Novel 3-(substituted) -2- indolinones compounds and use thereof as inhibitors of protein kinase activity” (priority 1997, published 2002)

The compounds below were run against T1, Met receptor (EGFR/Met chimeric cells, EMR) (Homo sapiens, UniProt P08581) (assay: Met Autophosphorylation Assay).
T1 construct: expressed in transfected cells; the other entry of the earlier key: EGFR (P00533, Epidermal growth factor receptor)
Type: biochemical
How it was run: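 Transiently transfected EGFR/Met chimeric (EMR) cells were lysed in HNTG with 1 mM PMSF. Met was captured on plates coated with goat anti-rabbit IgG, then rabbit anti-Met (C-28), using 90 μg lysate/100 μl for 60 min at room temperature. Phosphotyrosine was read by ELISA.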

T1 sequence (P08581 with tags, fused parts or gaps): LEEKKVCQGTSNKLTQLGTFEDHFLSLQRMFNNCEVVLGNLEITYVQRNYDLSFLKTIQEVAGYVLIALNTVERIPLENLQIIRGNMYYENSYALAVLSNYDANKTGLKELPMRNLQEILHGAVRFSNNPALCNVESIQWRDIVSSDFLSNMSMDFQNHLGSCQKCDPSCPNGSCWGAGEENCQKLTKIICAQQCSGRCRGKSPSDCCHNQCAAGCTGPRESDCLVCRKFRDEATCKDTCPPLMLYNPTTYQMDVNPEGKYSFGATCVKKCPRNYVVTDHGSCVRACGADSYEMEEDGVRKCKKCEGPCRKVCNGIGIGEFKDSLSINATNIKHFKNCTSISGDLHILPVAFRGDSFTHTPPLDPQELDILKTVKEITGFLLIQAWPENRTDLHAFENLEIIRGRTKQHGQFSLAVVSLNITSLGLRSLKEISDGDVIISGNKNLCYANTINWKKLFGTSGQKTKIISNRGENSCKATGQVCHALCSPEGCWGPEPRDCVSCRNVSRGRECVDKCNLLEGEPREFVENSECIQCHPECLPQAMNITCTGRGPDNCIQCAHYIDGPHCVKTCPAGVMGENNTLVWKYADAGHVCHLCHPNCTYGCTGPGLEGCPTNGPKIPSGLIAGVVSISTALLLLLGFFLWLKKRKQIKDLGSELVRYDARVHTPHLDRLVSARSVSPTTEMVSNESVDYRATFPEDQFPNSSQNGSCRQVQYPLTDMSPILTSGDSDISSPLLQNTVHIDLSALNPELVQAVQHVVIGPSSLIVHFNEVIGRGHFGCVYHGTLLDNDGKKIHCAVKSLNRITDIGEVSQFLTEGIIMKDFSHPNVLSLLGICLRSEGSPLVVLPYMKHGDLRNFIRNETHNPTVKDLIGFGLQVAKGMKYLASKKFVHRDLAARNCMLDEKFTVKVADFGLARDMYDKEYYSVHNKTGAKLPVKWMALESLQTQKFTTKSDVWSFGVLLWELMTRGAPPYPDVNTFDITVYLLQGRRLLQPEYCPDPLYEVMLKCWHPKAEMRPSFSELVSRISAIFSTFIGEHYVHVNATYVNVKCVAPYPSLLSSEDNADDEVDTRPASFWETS

Row | SMILES | Met Kinase % Inhibition (P.130) [%]
1 | Cc1cc(C=C2C(=O)Nc3c(Br)cc(Br)c(C)c32)cc(C(C)(C)C)c1O [10726/H04] | 77.6
2 | Cc1c(Br)cc(Br)c2c1C(=Cc1cc3c4c(c1O)CCCN4CCC3)C(=O)N2 [10724/H05] | 68.6
3 | CCOC(=O)c1[nH]c(C=C2C(=O)Nc3c(Br)cc(Br)c(C)c32)c(C(=O)OC)c1C [10726/H03] | 44.8
4 | Cc1c(Br)cc(Br)c2c1C(=Cc1ccc(F)cc1F)C(=O)N2 [10722/H06] | 70.3
5 | Cc1c(Br)cc(Br)c2c1C(=Cc1cc([N+](=O)[O-])c(O)c(C(C)(C)C)c1)C(=O)N2 [10722/H02] | 37.8
6 | Cc1c(Br)cc(Br)c2c1C(=Cc1cc(C(C)(C)C)cc(C(C)(C)C)c1O)C(=O)N2 [10723/H11] | 76.2
7 | Cc1c(Br)cc(Br)c2c1C(=Cc1ccc(N(C)C)c3ccccc13)C(=O)N2 [10724/H02] | 51.9
8 | COc1ccc(O)c(C=C2C(=O)Nc3c(Br)cc(Br)c(C)c32)c1 [10720/H10] | 48.2
